Laboratory results from patent EP0754455A1, “PHARMACEUTICAL COMPOSITIONS BASED ON AMINOMETHYLINDOLES AND THEIR THERAPEUTICAL APPLICATION AS NEUROPROTECTORS IN PARKINSON AND ALZHEIMER DISEASES” (CONSEJO SUPERIOR INVESTIGACIONES CIENTIFICAS (CSIC), priority 1995, dated 1996).
Like-named read-outs stand apart in the source and are kept apart here.

Key:
MAO-B [1] = target: T1, MAO-B (Rattus norvegicus, UniProt P19643); assay: MAO-B inhibition, mitochondrial portion of rat (IC50, time dependence, irreversibility), substrate PEA; format: biochemical, Sprague-Dawley rat; conditions: MAO-B (lines B..), substrate PEA, rat mitochondria
T1 construct: from tissue; host or cells: Sprague-Dawley rat liver, mitochondrial fraction
T1 sequence (P19643 1-520): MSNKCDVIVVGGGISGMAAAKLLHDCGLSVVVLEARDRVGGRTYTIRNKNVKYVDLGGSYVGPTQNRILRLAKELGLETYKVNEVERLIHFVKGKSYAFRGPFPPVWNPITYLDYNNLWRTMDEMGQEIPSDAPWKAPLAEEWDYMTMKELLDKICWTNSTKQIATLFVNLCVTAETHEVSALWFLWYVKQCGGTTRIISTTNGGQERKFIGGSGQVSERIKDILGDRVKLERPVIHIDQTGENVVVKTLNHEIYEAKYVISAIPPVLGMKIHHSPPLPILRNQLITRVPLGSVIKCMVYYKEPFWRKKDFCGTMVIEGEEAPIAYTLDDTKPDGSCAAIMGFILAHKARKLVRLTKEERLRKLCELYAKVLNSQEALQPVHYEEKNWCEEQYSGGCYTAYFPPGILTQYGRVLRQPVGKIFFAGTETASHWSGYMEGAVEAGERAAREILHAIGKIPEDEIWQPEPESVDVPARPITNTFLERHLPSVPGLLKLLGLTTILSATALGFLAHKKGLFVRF
Protocol: (§1) The mitochondrial portion of Sprague-Dawley rat was used to determine the MAO-A and MAO-B activity.
(§2) Determinations were made of the comparative MAO-A and MAO-B activity inhibition curves of the various compounds under study at time 0 and 30 min. by measuring the remaining activity to 5-HT and PEA as substrates.

MAO-A [2] = target: T2, MAO-A (Rattus norvegicus, UniProt P21396); assay: biochemical; format: biochemical, Sprague-Dawley rat
T2 construct: human and rat tissue to obtain the isolated forms of monoamine oxidase A and B; from tissue
T2 sequence (P21396 1-526): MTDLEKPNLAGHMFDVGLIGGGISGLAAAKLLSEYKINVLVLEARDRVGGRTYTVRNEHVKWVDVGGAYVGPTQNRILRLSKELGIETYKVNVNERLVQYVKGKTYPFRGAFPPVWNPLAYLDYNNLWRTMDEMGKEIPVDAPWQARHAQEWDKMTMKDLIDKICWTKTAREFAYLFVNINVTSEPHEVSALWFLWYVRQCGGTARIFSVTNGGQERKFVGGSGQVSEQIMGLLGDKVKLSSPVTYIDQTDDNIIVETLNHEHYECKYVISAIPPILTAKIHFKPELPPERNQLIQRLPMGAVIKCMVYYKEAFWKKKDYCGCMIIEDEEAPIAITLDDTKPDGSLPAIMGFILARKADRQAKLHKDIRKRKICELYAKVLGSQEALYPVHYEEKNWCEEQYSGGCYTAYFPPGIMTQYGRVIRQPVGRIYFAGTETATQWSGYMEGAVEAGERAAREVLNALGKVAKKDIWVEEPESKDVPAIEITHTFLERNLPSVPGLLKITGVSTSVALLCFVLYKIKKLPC
Protocol: as §1, §2

MAO-B [3] = target: T1, MAO-B; assay: Kinetic parameters of suicide-type inhibition, MAO-B (selectivity K1 MAO-A / K1 MAO-B); format: biochemical, Sprague-Dawley rat; conditions: selectivity for MAO-B
Text: K1 is the affinity constant of the first stage of the reaction and K1 MAO-A / K1 MAO-B the expression of the selectivity.
(§3) K^1cat is the velocity constant for the formation of the covalent irreversible complex during the second stage of the process. To compare the values of these constants towards the two forms of MAO, we express the inhibition efficacy as the ratio K^1cat/K1. The value of these constants (see Tables 2 and 3), is the result of three different experiments, with their corresponding SEM.

MAO-A [4] = target: T2, MAO-A; assay: Kinetic parameters of suicide-type inhibition, MAO-A; format: biochemical, Sprague-Dawley rat; conditions: for K^1cat / K1(10^-3) / K^1cat: MAO-A; for K^1cat / K1(10^-3): inhibition efficacy; for K^1cat: velocity constant for formation of the covalent irreversible complex, ± SEM
Text: Based on the apparent velocity constants of the first order (kapp) obtained for each inhibitor, calculations were made of the K1 and K^1c at (according to the method described by M. Avila et al. 1993, Biochem Pharmac 45, 2231-2237). K1 is the affinity constant of the first stage of the reaction and K1 MAO-A / K1 MAO-B the expression of the selectivity.
as §3

dopamine carrier = target: T3, dopamine carrier (Homo sapiens, UniProt Q01959); assay: Dopamine carrier inhibition in purified synaptosomes of human caudate; format: biochemical
T3 construct: This assay was carried out in purified synaptosomes of human caudate; from tissue; host or cells: post-mortem human caudate, purified synaptosomes
T3 sequence (Q01959 whole entry): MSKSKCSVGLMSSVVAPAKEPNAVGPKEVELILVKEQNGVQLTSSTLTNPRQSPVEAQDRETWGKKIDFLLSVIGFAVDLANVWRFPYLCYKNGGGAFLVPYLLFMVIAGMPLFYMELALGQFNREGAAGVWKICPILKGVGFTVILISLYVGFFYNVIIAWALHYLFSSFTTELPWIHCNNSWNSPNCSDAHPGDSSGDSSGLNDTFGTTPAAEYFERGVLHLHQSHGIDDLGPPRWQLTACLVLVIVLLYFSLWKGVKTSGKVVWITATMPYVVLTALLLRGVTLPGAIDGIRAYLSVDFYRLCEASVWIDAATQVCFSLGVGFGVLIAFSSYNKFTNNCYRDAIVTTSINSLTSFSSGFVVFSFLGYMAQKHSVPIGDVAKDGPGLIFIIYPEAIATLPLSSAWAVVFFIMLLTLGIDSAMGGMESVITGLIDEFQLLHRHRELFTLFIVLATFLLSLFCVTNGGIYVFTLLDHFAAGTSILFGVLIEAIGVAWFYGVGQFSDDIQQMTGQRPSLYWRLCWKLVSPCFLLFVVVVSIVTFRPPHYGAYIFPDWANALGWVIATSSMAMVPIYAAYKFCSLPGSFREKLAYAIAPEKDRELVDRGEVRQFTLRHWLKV
Protocol: This assay was carried out in purified synaptosomes of human caudate obtained using the same method as described by Rodríguez et al. 1987 Biochem Pharmac 36, 974-976.
The studies were carried out with the same inhibitors used in the rat tissue. The dopamine (DA) concentration was 0.1 µM, a value chosen from the kinetic constants obtained.

MAO-A [5] = target: T4, MAO-A (Mus musculus, UniProt Q64133); assay: Ex vivo inhibition of brain MAO-A after i.p. administration; format: in vivo, C57/BL mice; conditions: mouse brain homogenate 2 hours after i.p., l-deprenyl 10 mg/Kg, tested compound 4 mg/Kg
T4 construct: the brains homogenised in potassium phosphate buffer 50 mM, pH 7.2; from tissue; host or cells: C57/BL mouse brain homogenate
T4 sequence (Q64133 1-526): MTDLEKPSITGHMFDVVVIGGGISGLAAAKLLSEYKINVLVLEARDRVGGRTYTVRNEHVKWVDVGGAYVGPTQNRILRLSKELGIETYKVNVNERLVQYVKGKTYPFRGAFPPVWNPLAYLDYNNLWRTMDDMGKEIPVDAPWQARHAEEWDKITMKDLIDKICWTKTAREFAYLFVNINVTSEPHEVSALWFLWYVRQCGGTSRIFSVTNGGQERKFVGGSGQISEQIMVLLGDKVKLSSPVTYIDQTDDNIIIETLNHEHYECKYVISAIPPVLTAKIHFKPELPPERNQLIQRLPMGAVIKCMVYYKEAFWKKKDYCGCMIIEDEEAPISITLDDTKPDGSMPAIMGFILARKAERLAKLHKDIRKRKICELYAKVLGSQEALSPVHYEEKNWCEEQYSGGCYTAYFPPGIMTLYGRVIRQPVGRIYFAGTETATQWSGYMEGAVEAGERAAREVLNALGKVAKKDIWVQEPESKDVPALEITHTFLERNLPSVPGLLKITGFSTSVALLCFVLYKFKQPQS
Protocol: The pharmacological assays were carried out on C57/BL mice. These animals are sensitive to the induction of the symptomatology of Parkinson's disease through the action of MPTP.
The animals were sacrificed by decapitation after 2 hours and the brains homogenised in potassium phosphate buffer 50 mM, pH 7.2. Determinations were made of the MAO-A and MAO-B activity in each case using radiometric methods.

[6] = IC50 30 min., 30 min incubation
[7] = 0 min incubation, read-out: IC50 0 min
[8] = IC50 30 min., MAO-A (lines A..), substrate 5-HT, 30 min incubation, rat mitochondria
[9] = MAO-A (lines A..), substrate 5-HT, 0 min incubation, rat mitochondria, read-out: IC50 0 min
[10] = MAO-A (A..), affinity constant of the first stage, three experiments ± SEM, read-out: K1
[11] = read-out: IC50 30 min., MAO-A (lines A..), substrate 5-HT, 30 min incubation, rat mitochondria

| Compound | IC50 (MAO-B [1]; [6]) | IC50 (MAO-B [1]; [7]) | IC50 (MAO-A [2]; [8]) | IC50 (MAO-A [2]; [9]) | K1 MAO-A/K1 MAO-B (MAO-B [3]) | Ki (MAO-A [4]; [10]) | K^1cat / K1(10^-3) (MAO-A [4]) | K^1cat (MAO-A [4]) | IC50 (MAO-A [2]) | IC50 (MAO-A [2]; [11]) | Ki (MAO-A [4]) | IC50 (dopamine carrier) | remaining activity at 4 mg/kg (MAO-A [5]; ip, control = 100%) | MAO-A ACTIVITY (MAO-A [5]; control 485) |
| --- | --- | --- | --- | --- | --- | --- | --- | --- | --- | --- | --- | --- | --- | --- |
| C=C=CCNCc1cc2cc(OCc3ccccc3)ccc2[nH]1 [FA-75] | 0.025 µM | 0.398 µM | 0.25 µM | 3.98 µM | 63.0 | 0.347 µM | 0.47 10^-3 | 0.16 ± 0.02 min⁻¹ | – | – | – | – | – | – |
| C=C=CCN(C)Cc1cc2cc(OCc3ccccc3)ccc2n1C [FA-67] | – | – | – | – | – | – | – | – | 2.5 µM | 0.19 µM | 0.0265 µM | – | – | – |
| C#CCN(C)[C@H](C)Cc1ccccc1 [deprenyl, reference compound] | – | – | – | – | – | – | – | 0.049 ± 0.01 min⁻¹ | – | – | – | 0.1 µM | 52.5% | 255 |
| C#CCN(CC#C)Cc1cc2cc(OCc3ccccc3)ccc2n1C [FA-98] | 2.5 µM | 19.4 µM | 31 µM | – | 873.5 | 0.0198 µM | 5.6 10^-3 | 0.11 ± 0.01 min⁻¹ | – | – | – | – | – | – |
| CC#CCNCc1cc2cc(OCc3ccccc3)ccc2[nH]1 [FA-74] | 0.25 µM | 1.58 µM | 10 µM | 63 µM | 276.4 | 5.25 µM | 0.04 10^-3 | 0.21 ± 0.1 min⁻¹ | – | – | – | – | – | – |
| C=C=CCN(CC=C=C)Cc1cc2cc(OCc3ccccc3)ccc2[nH]1 [FA-78] | 0.19 µM | 3.1 µM | 6.3 µM | 120 µM | 913.6 | 14.1 µM | 0.014 10^-3 | 0.2 ± 0.04 min⁻¹ | – | – | – | – | – | – |
| CC#CCN(CC#CC)Cc1cc2cc(OCc3ccccc3)ccc2[nH]1 [FA-77] | 0.01 µM | 25 µM | 5 µM | 39 µM | 41.5 | 6.52 µM | 0.014 10^-3 | 0.09 ± 0.002 min⁻¹ | – | – | – | – | – | – |
| C#CCN(C)Cc1cc2cc(OCc3ccccc3)ccc2[nH]1 [FA-87] | – | – | – | – | – | – | – | – | 0.63 µM | 0.00079 µM | 0.0545 µM | – | – | – |
| CC#CCN(C)Cc1cc2cc(OCc3ccccc3)ccc2n1C [FA-66] | – | – | – | – | – | – | – | – | 1.25 µM | 0.15 µM | 0.0054 µM | – | – | – |
| CC#CCN(C)Cc1cc2cc(OCc3ccccc3)ccc2[nH]1 [FA-88] | – | – | – | – | – | – | – | 0.04 ± 0.001 min⁻¹ | 1.58 µM | 0.15 µM | 0.0139 µM | – | – | – |
| C=C=CCNCc1cc2cc(OCc3ccccc3)ccc2n1C [FA-97] | 0.012 µM | 0.79 µM | 0.025 µM | 0.199 µM | – | 0.0188 µM | 6.0 10^-3 | 0.12 ± 0.002 min⁻¹ | – | – | – | – | – | – |
| C#CCN(C)Cc1cc2cc(OCc3ccccc3)ccc2n1C [FA-65] | – | – | – | – | – | – | – | – | 1.5 µM | 0.1 µM | 0.018 µM | – | – | – |
